Positions of bridges follow the written chain, without caps; N, C: chain ends. Non-standard residues stand in square brackets, D forms with d. Residues, ends and D or L forms follow the SMILES beside them. *: point of attachment. Heptanoyl(6-Me) = CC(C)CCCCC(=O)*; X1 = CC[C@H](C)CCCCC(=O)*; Octanoyl = CCCCCCCC(=O)*; Dab = NCC[C@H](N)C(=O)O

A short description of one data set: Epithelial lining fluid. Format: in vivo, Swiss Webster mice. The following applies: for Time post dose up to which component could be quantified in ELF: mouse, in vivo.
Data set [1] in a line: Serum pharmacokinetics after intravenous administration in mice. Particulars: female, ND4 Swiss Webster, mouse, in vivo, 3 mg/kg.
For data set [2], the system named is Pseudomonas aeruginosa ATCC 27853 (PA 27853). Particulars: previously determined; cited from earlier work.
The next data set relates to PA 9019. Particulars: PA 9019, MDR bloodstream isolate; previously determined; cited from earlier work.

The half-life is how long it takes for the measured level to halve. A high value points to slow decline. Take `CC[C@H](C)CCCCC(=O)N[C@@H](CCN)C(=O)N[C@H](C(=O)N[C@@H](CCN)C(=O)N[C@H]1CCNC(=O)[C@H]([C@@H](C)O)NC(=O)[C@H](CCN)NC(=O)[C@H](CCN)NC(=O)[C@H](CC(C)C)NC(=O)[C@@H](Cc2ccccc2)NC(=O)[C@H](CCN)NC1=O)[C@@H](C)O` [PB1, polymyxin B1] (X1-[Dab]T[Dab][Dab][Dab][dF]L[Dab][Dab]T; lactam 4-C): in the data set “Epithelial lining fluid” (ELF AUC0–6h, i.v. ca. 3 mg/kg, mice), the “AUC ratio (liposome:solution) in epithelial lining fluid” value is 6.21. In data set [1], this compound gave a half-life of 19.2 min.

For the compound `CC(C)CCCCC(=O)N[C@@H](CCN)C(=O)N[C@H](C(=O)N[C@@H](CCN)C(=O)N[C@H]1CCNC(=O)[C@H]([C@@H](C)O)NC(=O)[C@H](CCN)NC(=O)[C@H](CCN)NC(=O)[C@H](CC(C)C)NC(=O)[C@@H](Cc2ccccc2)NC(=O)[C@H](CCN)NC1=O)[C@@H](C)O` [PB2, polymyxin B2] ({Heptanoyl(6-Me)}-[Dab]T[Dab][Dab][Dab][dF]L[Dab][Dab]T; lactam 4-C), in the data set “Epithelial lining fluid”, the “Time post dose up to which component could be quantified in ELF” value (shortened to “Time post dose up”) is on record as “up to 2 h”.

On to `CCCCCCCC(=O)N[C@@H](CCN)C(=O)N[C@H](C(=O)N[C@@H](CCN)C(=O)N[C@H]1CCNC(=O)[C@H]([C@@H](C)O)NC(=O)[C@H](CCN)NC(=O)[C@H](CCN)NC(=O)[C@H](CC(C)C)NC(=O)[C@@H](Cc2ccccc2)NC(=O)[C@H](CCN)NC1=O)[C@@H](C)O` [PB3, polymyxin B3] (Octanoyl-[Dab]T[Dab][Dab][Dab][dF]L[Dab][Dab]T; lactam 4-C), for which the “Time post dose up” value in the data set “Epithelial lining fluid” is listed as “up to 2 h”.

For `CC[C@H](C)CCCCC(=O)N[C@@H](CCN)C(=O)N[C@H](C(=O)N[C@@H](CCN)C(=O)N[C@H]1CCNC(=O)[C@H]([C@@H](C)O)NC(=O)[C@H](CCN)NC(=O)[C@H](CCN)NC(=O)[C@H]([C@@H](C)CC)NC(=O)[C@@H](Cc2ccccc2)NC(=O)[C@H](CCN)NC1=O)[C@@H](C)O` [ile-PB1, isoleucine-B1] (X1-[Dab]T[Dab][Dab][Dab][dF]I[Dab][Dab]T; lactam 4-C), the “Time post dose up” value in the data set “Epithelial lining fluid” is on record as “up to 2 h”.

As a reminder, the MIC is the least concentration at which growth counts as inhibited. Polymyxin B [PB]: the values for the MIC (in data set [2]; in the data set with PA 9019) were 2 µg/mL and 4 µg/mL, respectively.

The values above are taken from paper PMC3849129 (International journal of antimicrobial agents, 2013).
